Assay results from article PMC12670427, “FDA Drug Repurposing Uncovers Modulators of Dopamine D2 Receptor Localization via Disruption of the NCS‑1 Interaction” (Journal of Medicinal Chemistry, 2025).
“And” between values parts separate entries of the source, which are not always exact repeats. Identical values can stand only once. Counter-ions that a name gives are not always drawn.

Experiments:
[1] = known drug property listed in Supplementary Table 1, no reference given; cited from earlier work
[2] = system: D2R subcellular localization in HEK293 cells; assay: Sequential immunostaining for D2R localization (membrane vs cytoplasm); type: cell-based, human; conditions: for effect of trafficking tool compounds on NCS-1-induced D2R membrane localization: HEK293 cells, NCS-1 overexpression
Procedure: HEK293 cells were seeded on poly-D-lysine-coated glass coverslips in 24-well plates. Following transfection and drug treatments, cells were fixed with 2% paraformaldehyde (PFA) for 10 min and with 4% PFA for an additional 10 min at room temperature. Coverslips with fixed cells were then blocked in PBS containing 10% normal goat serum (NGS) for 30 min at room temperature.
After three PBS washes, fluorescence was fixed with 10% formaldehyde for 3 min. The second round started with a blocking step using PBS containing 10% NGS and 0.03% Triton X-100 for 1 h at room temperature. […] Coverslips were washed with PBS and mounted using ProLong Gold Antifade (Thermo Fisher Scientific) with Hoechst for nuclear counterstaining. Confocal images were acquired using either a Leica SP5 or a Nikon ECLIPSE Ti microscope, depending on the experiment. […] Individual confocal images were processed by setting intensity thresholds for the green (cytoplasmic) and red (membrane) channels. Fluorescence intensity was then measured separately for each channel, and the relative proportion of green to red signal was calculated for each image.

[3] = molecular target: T1, full-length NCS-1 (Homo sapiens, UniProt P62166); assay: Tryptophan intrinsic emission fluorescence binding to full-length NCS-1; conditions: full-length NCS-1 5 μM, Trp emission at 330 nm, 35 °C, apparent Kd mean ± SD
T1 construct: For biophysical and crystallographic assays, full-length human NCS-1; made in house
Procedure: To experimentally assess the binding of the FDA-approved drug library to NCS-1 we used tryptophan emission fluorescence. ,, Fluorescence intensity changes were measured at 330 nm in full-length NCS-1 upon increasing concentrations of the selected compounds (Figure A).

[4] = molecular target: T2, NCS-1ΔH10 (Homo sapiens, UniProt P62166); assay: Intrinsic emission fluorescence binding to NCS-1ΔH10; conditions: NCS-1ΔH10, intrinsic emission fluorescence; read-out: apparent binding affinity for H10-truncated NCS-1
T2 construct: NCS-1 construct lacking helix H10; made in house
Procedure: To determine the affinity of the FDA-approved drugs for full-length NCS-1 or NCS-1ΔH10, we used fluorescence techniques, since the presence of tryptophan (Trp) and tyrosine (Tyr) residues in NCS-1 sequence confers the protein intrinsic emission fluorescence when excited at 295 nm. Fluorescence intensity was monitored at 330 nm and 35 °C with a nano-DSF machine (nanoTemper). Protein concentration was set to 5 μM in a buffer containing Tris 50 mM pH 8.0, NaCl 125 mM, CaCl2 5 μM, 5% DMSO. Ligand concentration was increased up to 150 μM. Three independent experiments were performed for each protein:ligand ratio. […] In fact, compound FDA-02, 09, 11, 15, 21, and 22 were measured using SPR due to their high intrinsic emission at 330 nm. The apparent dissociation constant, K d, was obtained by using a least-squares algorithm to fit the recorded data to the equation previously described. Apparent K d values are reported as mean ± SD. ,
Prior crystallization, the contribution of the helix H10 to ligand binding was assessed in case this information could guide construct selection for structural studies. […] Given the initial high affinity of AZS for full-length NCS-1, the affinity for the H10-truncated construct was not measured. Initial crystallization screenings yielded to crystals of ATV in complex with full-length NCS-1. […]

[5] = Solubility under the binding assay conditions; type: physicochemical; conditions: SPR running buffer; precipitated on the sensor chip
Excerpt: (§1) Sensorgrams data were double-referenced and solvent-corrected using the BiaEvaluation X-100 software (Biacore, GE).

[6] = molecular target: T3, NCS-1/D2R interaction (Homo sapiens, UniProt P62166); assay: Proximity ligation assay (PLA) with flow cytometry; type: cell-based; conditions: HEK293 cells, 5 μM, 16 h; vehicle set to 100%; mean ± SD
T3 construct: expressed in transfected cells; host or cells: HEK293

[7] = molecular target: T1, full-length NCS-1; assay: Surface plasmon resonance over CM4-immobilized NCS-1; type: binding; conditions: SPR, NCS-1 immobilized on CM4 chip, 25 °C; used for compounds that emit at 330 nm; read-out: NCS-1/FDA Affinity, Kd
Excerpt: In these experiments, full-length NCS-1 was cross-linked to the surface of the biosensor, through its lysine amino acids, since these residues are concentrated on the upper surface and opposite to the hydrophobic crevice. This arrangement ensured that the hydrophobic crevice remained exposed to the solvent.
NCS-1 was immobilized on a CM4 sensor chip (Biacore, GE) following a standard amine coupling method. The carboxymethyl dextran surface of the flow cell 2 was activated by injecting a 1:1 mixture of 0.4 M EDC and 0.1 M NHS for 7 min. The protein was then covalently coupled to the surface via a 7 min injection at several dilutions, with a final concentration of 100 μg/mL in 10 mM sodium acetate, pH 4.0. Unreacted N-hydroxysuccinimide esters were quenched by a 7 min injection of 0.1 M ethanolamine-HCl pH 8.0, achieving an immobilization level of 5000 RUs. Flow cell 1, subjected to the same amine coupling procedure but without protein, served as a reference (Supplementary Figure 3A). Prior to use, 10 mM stock solutions of FDA-approved drugs were serially diluted to final concentration of 100 μM in running buffer. […] After dissociation, an additional wash step was performed using a 50% DMSO solution. Regeneration was not required.
as §1

[8] = read-out: NCS-1/FDA Affinity, Kd

T1 sequence (P62166 whole entry): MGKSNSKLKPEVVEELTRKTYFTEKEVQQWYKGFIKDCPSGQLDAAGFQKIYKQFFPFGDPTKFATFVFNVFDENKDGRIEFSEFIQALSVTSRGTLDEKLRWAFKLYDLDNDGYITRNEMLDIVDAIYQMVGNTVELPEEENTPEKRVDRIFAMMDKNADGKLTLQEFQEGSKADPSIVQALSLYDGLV
T3 sequence (P62166 2-190 limits assumed): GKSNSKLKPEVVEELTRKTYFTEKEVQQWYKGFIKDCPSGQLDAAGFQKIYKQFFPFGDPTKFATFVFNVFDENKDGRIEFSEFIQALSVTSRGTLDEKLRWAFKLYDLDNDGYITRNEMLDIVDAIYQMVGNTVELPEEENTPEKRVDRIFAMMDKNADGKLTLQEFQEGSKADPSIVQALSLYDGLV
T2 sequence (P62166 1-177 limits assumed, stated change not applied): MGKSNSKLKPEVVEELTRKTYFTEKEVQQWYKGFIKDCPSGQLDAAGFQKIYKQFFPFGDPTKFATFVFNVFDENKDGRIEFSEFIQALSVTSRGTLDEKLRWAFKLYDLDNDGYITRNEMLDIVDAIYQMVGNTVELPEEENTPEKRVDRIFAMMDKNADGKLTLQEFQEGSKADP

Compound | Crossing the blood-brain barrier [1] | Kd [3, 8] | further results
CC(C)CN(C[C@@H](O)[C@H](Cc1ccccc1)NC(=O)O[C@H]1CO[C@H]2OCC[C@H]21)S(=O)(=O)c1ccc(N)cc1 [Darunavir] | No | – | –
Cc1ccc(NC(=O)c2ccc(CN3CCN(C)CC3)cc2)cc1Nc1nccc(-c2cccnc2)n1 [Imatinib] | Yes | – | –
Capreomycin sulfate | – | – | effect on NCS-1-induced D2R membrane localization ([2]; HEK293 cells cotransfected with D2R and NCS-1, 5 μM, 2 h): modest effect
N#Cc1ccc2[nH]cc(CCCCN3CCN(c4ccc5oc(C(N)=O)cc5c4)CC3)c2c1 [Vilazodone] | Yes | 34 µM and 34.4 µM | effect on D2R localization in the absence of NCS-1 overexpression ([2]; HEK293 cells transfected with D2R alone): affected D2R localization; Kd [4]: 8 µM
CCN(CC)CCNC(=O)c1c(C)[nH]c(/C=C2\C(=O)Nc3ccc(F)cc32)c1C [Sunitinib] | No | – | –
CCCCCCOC(=O)NC(=N)c1ccc(NCc2nc3cc(C(=O)N(CCC(=O)OCC)c4ccccn4)ccc3n2C)cc1 [Dabigatran etexilate] | No | 13.2 ± 2.5 µM | –
CC(C)c1c(C(=O)Nc2ccccc2)c(-c2ccccc2)c(-c2ccc(F)cc2)n1CC[C@@H](O)C[C@@H](O)CC(=O)O [Atorvastatin] | – | 53 µM and 53.1 µM | Kd [4]: 17 µM
C[C@H]1CCC/C=C/[C@@H]2C[C@H](O)C[C@H]2[C@H](O)/C=C/C(=O)O1 [BFA, Brefeldin A] | – | – | effect of trafficking tool compounds on NCS-1-induced D2R membrane localization [2]: prevented the NCS-1-induced increase in membrane D2R
CCOc1nc2cccc(C(=O)OCc3oc(=O)oc3C)c2n1Cc1ccc(-c2ccccc2-c2noc(=O)[nH]2)cc1 [Azilsartan medoxomil] | Low penetrance | – | –
C[C@]12CC[C@@H]3c4ccc(O)cc4C[C@@H](CCCCCCCCC[S+]([O-])CCCC(F)(F)C(F)(F)F)[C@H]3[C@@H]1CC[C@@H]2O (some centres unmarked) [Faslodex] | No | – | –
O=C1Cc2cc(CCN3CCN(c4nsc5ccccc45)CC3)c(Cl)cc2N1 [ziprasidone] | – | – | solubility under the experimental conditions [5]: low solubility
CCN(CCO)CCCC(C)Nc1ccnc2cc(Cl)ccc12 (centres unmarked) [Hydroxychloroquine sulfate] | Yes | 353 ± 138 µM | –
CS(=O)(=O)CCNCc1ccc(-c2ccc3ncnc(Nc4ccc(OCc5cccc(F)c5)c(Cl)c4)c3c2)o1 [Lapatinib] | No | – | –
Cc1c(O)cccc1C(=O)N[C@@H](CSc1ccccc1)[C@H](O)CN1C[C@H]2CCCC[C@H]2C[C@H]1C(=O)NC(C)(C)C [Nelfinavir] | No | 47.6 ± 4.1 µM | PPI modulation (PLA): NCS-1/D2R binding relative to vehicle-treated controls [6]: 112.0 ± 12.7%
CNCCCC1c2ccccc2C=Cc2ccccc21 [Protriptyline hydrochloride] | Yes | – | –
CCN(CC)CCCC(C)Nc1ccnc2cc(Cl)ccc12 (centres unmarked) [Chloroquine] | Yes | 200 ± 35 µM | –
CCCCCCCN(CC)CCCC(O)c1ccc(NS(C)(=O)=O)cc1 (centres unmarked) [Ibutilide fumarate] | No | – | NCS-1/FDA Affinity, Kd [3]: No affinity
O=C(N/N=C/c1ccc(O)c(O)c1)c1cc2ccccc2cc1O [Dynasore] | – | – | effect of trafficking tool compounds on NCS-1-induced D2R membrane localization [2]: did not significantly affect
CCCN(CCC)CCc1cccc2c1CC(=O)N2 [Ropinirole] | – | – | effect of trafficking tool compounds on NCS-1-induced D2R membrane localization [2]: reversed this effect
CN1C[C@H](C(=O)N[C@]2(C)O[C@@]3(O)[C@@H]4CCCN4C(=O)[C@H](Cc4ccccc4)N3C2=O)C=C2c3cccc4[nH]cc(c34)C[C@H]21 [Ergotamine] | No | – | Kd ([3]; NCS-1/FDA Affinity, Kd): 122 ± 18 µM
CCN(CC)CCOc1ccc(C(=C(Cl)c2ccccc2)c2ccccc2)cc1 [Clomiphene citrate] | No | – | –
COC(=O)N[C@H](C(=O)N1CCC[C@H]1c1nc(-c2ccc(-c3ccc(-c4c[nH]c([C@@H]5CCCN5C(=O)[C@@H](NC(=O)OC)C(C)C)n4)cc3)cc2)c[nH]1)C(C)C [Daclatasvir] | No | 7.2 ± 0.1 µM | PPI modulation (PLA): NCS-1/D2R binding relative to vehicle-treated controls [6]: 114.6 ± 17.4%
OCc1cc(C(O)CNCCCCCCOCCCCc2ccccc2)ccc1O (centres unmarked) [Salmeterol] | Yes | – | Kd [7]: 68.2 ± 17.9 µM; PPI modulation (PLA): NCS-1/D2R binding relative to vehicle-treated controls [6]: 96.5 ± 17.2%
